Data as given in US7718406B2, “Substrates for TAFI (A)” (DSM IP Assets B.V., priority 2002, dated 2010).

What was measured:
carboxypeptidase B = molecular target: T1, carboxypeptidase B (Homo sapiens, UniProt P15086); assay: Splitting of thiaarginine and thialysine substrates by carboxypeptidase B; type: biochemical; details: substrate final concentration 174 μM
T1 sequence (P15086 111-417): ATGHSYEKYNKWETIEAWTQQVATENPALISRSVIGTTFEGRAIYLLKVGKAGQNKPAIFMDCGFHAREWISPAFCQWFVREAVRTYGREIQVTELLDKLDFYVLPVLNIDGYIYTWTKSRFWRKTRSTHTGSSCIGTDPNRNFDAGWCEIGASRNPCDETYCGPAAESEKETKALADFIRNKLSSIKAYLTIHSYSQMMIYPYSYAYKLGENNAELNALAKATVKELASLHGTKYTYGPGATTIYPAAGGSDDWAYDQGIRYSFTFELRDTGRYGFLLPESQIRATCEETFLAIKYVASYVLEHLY
Method: [drawing 2] have been described as substrates for carboxypeptidase B (Bull. Korean. Chem. Soc. 1998, 19(2), 189-193). […] Detection of CPB by means of compound A is carried out according to the following Scheme 1.
(§1) • measure for 10 min at RT Results: • Splitting of thiaarginine and thialysine substrates (final concentration 174 μM) by TAFIa (final concentration 17 μg/ml) • in brackets the value for carboxypeptidase B • Substances of comparison A and B from Bull. Korean. Chem. Soc. 1998, 19(2), 189-193 • ΔE=Extinction variation at 405 nm

TAFIa = molecular target: T2, TAFIa (Homo sapiens, UniProt Q96IY4); assay: Splitting of thiaarginine and thialysine substrates by TAFIa (Ellman's reagent, absorption at 405-412 nm); type: biochemical; details: substrate final concentration 174 μM; TAFIa final concentration 17 μg/ml; RT, 10 min; pH 7.4
T2 construct: purchased Enzyme Research Laboratory
T2 sequence (Q96IY4 115-423): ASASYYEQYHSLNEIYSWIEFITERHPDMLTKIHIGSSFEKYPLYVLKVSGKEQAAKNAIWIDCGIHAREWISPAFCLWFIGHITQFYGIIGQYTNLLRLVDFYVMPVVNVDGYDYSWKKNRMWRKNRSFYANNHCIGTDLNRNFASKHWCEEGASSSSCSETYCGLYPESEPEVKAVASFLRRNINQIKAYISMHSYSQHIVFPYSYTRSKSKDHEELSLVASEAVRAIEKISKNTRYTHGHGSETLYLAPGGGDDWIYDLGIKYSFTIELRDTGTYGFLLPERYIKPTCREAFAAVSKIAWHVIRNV
Method: Principle: TAFIa is determined as shown in Scheme 1. In a first step, the substrate is hydrolyzed by TAFIa in such a way that a thioamino acid (thiaarginine or thialysine) is released. These instable intermediates are rapidly decomposed into 2-mercaptoethylguanidine or 3-mercaptopropylamine, respectively. These mercapto compounds react with Ellman's reagent (5,5′-dithio-bis-(2-nitrobenzoic acid)), thereby releasing the strongly yellow 3-carboxy-4-nitrothiophenol that can be measured using a spectrophotometer at 405-412 nm. The free thiol content measured is directly proportional to the quantity of substrate hydrolyzed by TAFIa and thereby allows a quantitative analysis of the enzyme activity.
Enzyme assay: The enzyme activity is measured at room temperature by using a 10 mM substrate stock solution in DMSO. TAFI of human origin can be obtained in a stock solution of 360 μg/ml from Enzyme Research Laboratory or over blood plasma. Activation of TAFI to TAFIa occurred with thrombin (2.7 U/ml), the activation of which was produced with 30 μg of thrombomodulin. Excessive thrombin activity was eliminated by adding the synthetic inhibitor NAPAP. The measurement was performed on microtiter plates.
The absorption increase at 405-412 nm was recorded for 10 minutes.
in buffer (20 mM HEPES, 5 mM CaCl2, 0.01% Tween 80; pH 7.4) • incubate for 5 min at 25° C. Measurement:
as §1

Compound | ΔE/min (extinction variation at 405 nm), value in brackets for carboxypeptidase B (carboxypeptidase B) | ΔE/min (extinction variation at 405 nm), splitting by TAFIa (TAFIa)
Cl.N=C(N)NCCSC(NC(=O)[C@H](CCCCNC(=O)OCc1ccccc1)NC(=O)c1ccccc1)C(=O)O (stereo partly drawn) [No. 4269, benzoyl-(L)-lysyl-(ε-benzyloxycarbonyl)-α-(D,L)-(2-guanidinoethylthio)-glycine hydrochloride salt] | (0.018) ΔE/min | 0.108 ΔE/min
NCCCSC(NC(=O)[C@H](CCCCNC(=O)OCc1ccccc1)NC(=O)c1ccccc1)C(=O)O.O=C(O)C(F)(F)F (stereo partly drawn) [No. 4339, benzoyl-(L)-lysyl-(ε-benzyloxycarbonyl)-α-(D,L)-(3-aminopropylthio)-glycine trifluoracetic acid salt] | – | 0.055 ΔE/min
Boc-F-K(Boc)-G(GUS)-OH × HCl [No. 4298] | (0.034) ΔE/min | 0.043 ΔE/min
Boc-K(Tos)-G(GUS)-OH × HCl [No. 4273] | (0.048) ΔE/min | 0.014 ΔE/min
Boc-K(Z)-G(GUS)-OH × TFA [No. 4275] | (0.028) ΔE/min | 0.041 ΔE/min
Boc-K(Z)-G(α-SPrA)-OH × TFA [No. 4341] | – | 0.054 ΔE/min
Bz-P-K(Boc)-G(GUS)-OH × TFA [No. 4300] | (0.072) ΔE/min | 0.012 ΔE/min
Bz-V-G(GUS)-OH × TFA [No. 4334] | – | 0.034 ΔE/min
Bz-V-G(α-SPrA)-OH × TFA [No. 4336] | – | 0.053 ΔE/min
Z-A-K(Boc)-G(GUS)-OH × HCl [No. 4302] | (0.059) ΔE/min | 0.042 ΔE/min
